Measured values reported in ChEMBL document CHEMBL6074689 (Eur J Med Chem, 2025).
Calls of active or inactive are those of the source. The calls are words filed in the database; no cut-off is given here.

Tests used:
Acetylcholinesterase [1] = biological target: T1, Acetylcholinesterase (Homo sapiens, UniProt P22303); assay: Displacement of propidium iodide from human AChE PAS assessed as reduction in fluorescence intensity at 5 uM incubated for 6 hrs by fluorescence based analysis relative to control; set-up: scale not given: the % may be the effect or the level left
T1 sequence (P22303 whole entry): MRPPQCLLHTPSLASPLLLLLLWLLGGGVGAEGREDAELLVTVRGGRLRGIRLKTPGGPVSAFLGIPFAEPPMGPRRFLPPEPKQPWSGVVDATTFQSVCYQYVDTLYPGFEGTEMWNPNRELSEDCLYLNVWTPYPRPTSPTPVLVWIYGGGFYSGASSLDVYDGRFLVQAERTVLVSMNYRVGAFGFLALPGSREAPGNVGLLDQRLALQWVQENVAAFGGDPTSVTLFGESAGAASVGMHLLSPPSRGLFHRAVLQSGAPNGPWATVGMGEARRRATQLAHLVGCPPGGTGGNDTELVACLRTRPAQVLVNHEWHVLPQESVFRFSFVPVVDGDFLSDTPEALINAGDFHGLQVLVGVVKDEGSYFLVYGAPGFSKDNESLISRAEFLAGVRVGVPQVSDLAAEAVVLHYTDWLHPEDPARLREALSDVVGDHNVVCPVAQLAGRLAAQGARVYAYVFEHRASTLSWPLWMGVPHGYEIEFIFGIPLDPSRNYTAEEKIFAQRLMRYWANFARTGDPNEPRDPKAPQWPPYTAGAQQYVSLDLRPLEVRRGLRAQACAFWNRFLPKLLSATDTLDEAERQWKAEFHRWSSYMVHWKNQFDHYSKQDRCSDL

Acetylcholinesterase [2] = biological target: T1, Acetylcholinesterase; assay: Displacement of propidium iodide from human AChE PAS assessed as reduction in fluorescence intensity at 1 uM incubated for 6 hrs by fluorescence based analysis relative to control; set-up: scale not given: the % may be the effect or the level left
Acetylcholinesterase [3] = biological target: T1, Acetylcholinesterase; assay: Displacement of propidium iodide from human AChE PAS assessed as reduction in fluorescence intensity at 0.1 uM incubated for 6 hrs by fluorescence based analysis relative to control; set-up: scale not given: the % may be the effect or the level left
Acetylcholinesterase [4] = biological target: T1, Acetylcholinesterase; assay: Displacement of propidium iodide from human AChE PAS assessed as reduction in fluorescence intensity at 0.01 uM incubated for 6 hrs by fluorescence based analysis relative to control; set-up: scale not given: the % may be the effect or the level left
[5] = Antioxidant activity assessed as DPPH radical scavenging activity at 200 uM incubated for 30 mins relative to control; type: functional
[6] = Toxicity in Drosophila melanogaster Oregon R-positive assessed as reduction in eclosed flies at 50 uM measured for 15 days relative to control; set-up: scale not given: the % may be the effect or the level left; conditions: 360 h, time 15 day
[7] = Toxicity in Drosophila melanogaster Oregon R-positive assessed as reduction in eclosed flies at 100 uM measured for 15 days relative to control; set-up: scale not given: the % may be the effect or the level left; conditions: 360 h, time 15 day
[8] = Toxicity in Drosophila melanogaster Oregon R-positive assessed as reduction in eclosed flies at 200 uM measured for 15 days relative to control; set-up: scale not given: the % may be the effect or the level left; conditions: 360 h, time 15 day
[9] = Toxicity in Drosophila melanogaster Oregon R-positive assessed as reduction in eclosed flies at 400 uM measured for 15 days relative to control; set-up: scale not given: the % may be the effect or the level left; conditions: 360 h, time 15 day
Drosophila melanogaster [10] = assay: Anti-alzheimer activity in ey-GAL4 driven UAS-amyloid beta (1 to 42) induced Drosophila melanogaster Oregon R-positive assessed as mild eye phenotype at 50 uM by Stereo zoom microscopic imaging analysis relative to control; type: functional
Drosophila melanogaster [11] = assay: Anti-alzheimer activity in ey-GAL4 driven UAS-amyloid beta (1 to 42) induced Drosophila melanogaster Oregon R-positive assessed as severe eye phenotype at 50 uM by Stereo zoom microscopic imaging analysis relative to control; type: functional
Drosophila melanogaster [12] = assay: Anti-alzheimer activity in ey-GAL4 driven UAS-amyloid beta (1 to 42) induced Drosophila melanogaster Oregon R-positive assessed as mild eye phenotype at 100 uM by Stereo zoom microscopic imaging analysis relative to control; type: functional
Drosophila melanogaster [13] = assay: Anti-alzheimer activity in ey-GAL4 driven UAS-amyloid beta (1 to 42) induced Drosophila melanogaster Oregon R-positive assessed as rescued eye phenotype at 100 uM by Stereo zoom microscopic imaging analysis relative to control; type: functional
Drosophila melanogaster [14] = assay: Anti-alzheimer activity in ey-GAL4 driven UAS-amyloid beta (1 to 42) induced Drosophila melanogaster Oregon R-positive assessed as reduction in superoxide level at 100 uM by fluorescence based analysis; type: functional, organism-based
Drosophila melanogaster [15] = assay: Inhibition of oxidative stress in y-GAL4 driven UAS-amyloid beta (1 to 42) induced Drosophila melanogaster Oregon R-positive assessed as reduction in ROS level at 50 uM incubated for 30 mins by H2DCFDA staining based analysis; type: functional, organism-based
Mus musculus [16] = assay: Antialzheimer activity in scopolamine-induced Swiss albino mouse model assessed as improvement in memory retention by measuring time spent in platform quadrant at 3 mg/kg, po preincubated with compound for 30 mins followed by scopolamine induction and measured after 5 days by Morris water maze test; type: functional, organism-based; conditions: time 7230.0 min
Mus musculus [17] = assay: Antialzheimer activity in scopolamine-induced Swiss albino mouse model assessed as reduction in BChE level at 3 mg/kg, po preincubated with compound for 30 mins followed by scopolamine induction and measured after 30 mins; type: functional, organism-based; conditions: time 1.0 hrs
Mus musculus [18] = assay: Antioxidant activity against scopolamine-induced Swiss albino mouse model assessed as increase in SOD level at 3 mg/kg, po by absorbance based analysis; type: functional, organism-based
Acetylcholinesterase [19] = biological target: T1, Acetylcholinesterase; assay: Inhibition of human recombinant AChE expressed in HEK293 cells using acetylthiocholine iodide as substrate preincubated with compound for 30 mins followed by substrate addition and measured after 30 mins by DTNB reagent based Ellman's method
Cholinesterase = Cholinesterase (Equus caballus, UniProt P81908); assay: Inhibition of equine serum BChE using acetylthiocholine iodide as substrate preincubated with compound for 30 mins followed by substrate addition and measured after 30 mins by DTNB reagent based Ellman's method
Chain of Cholinesterase (P81908 whole entry): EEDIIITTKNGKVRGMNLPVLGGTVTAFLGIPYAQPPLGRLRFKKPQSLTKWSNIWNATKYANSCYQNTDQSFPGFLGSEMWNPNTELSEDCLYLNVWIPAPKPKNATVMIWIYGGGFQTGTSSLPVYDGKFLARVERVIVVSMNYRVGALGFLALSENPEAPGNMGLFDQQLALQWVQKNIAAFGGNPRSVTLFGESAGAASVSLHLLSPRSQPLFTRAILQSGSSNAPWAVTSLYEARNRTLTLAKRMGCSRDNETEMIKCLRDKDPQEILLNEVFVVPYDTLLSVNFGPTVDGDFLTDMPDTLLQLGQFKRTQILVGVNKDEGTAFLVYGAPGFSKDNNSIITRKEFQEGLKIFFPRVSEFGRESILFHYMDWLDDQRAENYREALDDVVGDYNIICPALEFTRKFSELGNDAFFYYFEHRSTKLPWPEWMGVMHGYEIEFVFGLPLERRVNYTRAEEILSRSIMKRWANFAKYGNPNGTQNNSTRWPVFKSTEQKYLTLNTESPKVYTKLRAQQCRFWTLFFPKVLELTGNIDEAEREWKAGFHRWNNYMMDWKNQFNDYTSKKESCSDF

Row | Structure (SMILES) | Activity (Acetylcholinesterase [1]) | Activity (Acetylcholinesterase [2]) | Activity (Acetylcholinesterase [3]) | Activity (Acetylcholinesterase [4]) | Activity [5] | Activity [6] | Activity [7] | Activity [8] | Activity [9] | Activity (Drosophila melanogaster [10]) | Activity (Drosophila melanogaster [11]) | Activity (Drosophila melanogaster [12]) | Activity (Drosophila melanogaster [13]) | Activity (Drosophila melanogaster [14]) | Activity (Drosophila melanogaster [15]) | Activity (Mus musculus [16]) | Activity (Mus musculus [17]) | Activity (Mus musculus [18]) | IC50 (Acetylcholinesterase [19]) | IC50 (Cholinesterase)
1 | CCN(C)C(=O)Oc1cccc([C@H](C)N(C)C)c1 [RIVASTIGMINE] | 8.74% | 6.3% | 2.96% | 1.61% | 3.71% | 108% | 95% | 73% | 29% | 43% | 23% | 40% | 33% | Active | Active | Active | Active | Active |  | 
2 | CC(c1cccc(OC(=O)NCCc2c[nH]c3ccc(O)cc23)c1)N(C)C (configuration not stated) |  |  |  |  |  |  |  |  |  |  |  |  |  |  |  |  |  |  | 2.31 nM | 55.8 nM
3 | C[C@@H](c1cccc(OC(=O)NCCc2c[nH]c3ccccc23)c1)N(C)C |  |  |  |  |  |  |  |  |  |  |  |  |  |  |  |  |  |  | 22.2 nM | 11.1 nM
